PubChem BioAssay (NCI)
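Grown in 96-well plates, cells were treated for 48 hours with each compound at five concentrations. Insufficient inhibition: endpoint recorded as highest concentration tested. Definition used: TGI = concentration required for complete inhibition of growth.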

Assays:
Assay in all cases: NCI anticancer screen, dose series, 48 h
A498 renal = test system: A498 renal
SW-620 colon = test system: SW-620 colon
SF-268 CNS = test system: SF-268 CNS
NCI-H460 lung = test system: NCI-H460 lung
NCI-H522 lung = test system: NCI-H522 lung
UACC-257 melanoma = test system: UACC-257 melanoma
UO-31 renal = test system: UO-31 renal
COLO 205 colon = test system: COLO 205 colon
OVCAR-5 ovarian = test system: OVCAR-5 ovarian
OVCAR-8 ovarian = test system: OVCAR-8 ovarian
HCT-116 colon = test system: HCT-116 colon
SF-295 CNS = test system: SF-295 CNS
UACC-62 melanoma = test system: UACC-62 melanoma
HL-60(TB) leukemia = test system: HL-60(TB) leukemia
OVCAR-3 ovarian = test system: OVCAR-3 ovarian
SK-OV-3 ovarian = test system: SK-OV-3 ovarian
KM12 colon = test system: KM12 colon
HCC-2998 colon = test system: HCC-2998 colon
A549 NSCLC = test system: A549 NSCLC
SK-MEL-2 melanoma = test system: SK-MEL-2 melanoma
786-0 renal = test system: 786-0 renal
SNB-75 CNS = test system: SNB-75 CNS
SF-539 CNS = test system: SF-539 CNS
SNB-19 CNS = test system: SNB-19 CNS
NCI-H23 lung = test system: NCI-H23 lung
HOP-18 NSCLC = test system: HOP-18 NSCLC
NCI-H226 lung = test system: NCI-H226 lung
SN12C renal = test system: SN12C renal
U251 CNS = test system: U251 CNS
LOX IMVI melanoma = test system: LOX IMVI melanoma
CCRF-CEM leukemia = test system: CCRF-CEM leukemia
RPMI-8226 leukemia = test system: RPMI-8226 leukemia
RXF-631 renal = test system: RXF-631 renal
LXFL 529 NSCLC = test system: LXFL 529 NSCLC
M14 melanoma = test system: M14 melanoma
TK-10 renal = test system: TK-10 renal
ACHN renal = test system: ACHN renal
K-562 leukemia = test system: K-562 leukemia
KM20L2 colon = test system: KM20L2 colon
CAKI-1 renal = test system: CAKI-1 renal
MALME-3M melanoma = test system: MALME-3M melanoma
HOP-62 NSCLC = test system: HOP-62 NSCLC
SNB-78 CNS = test system: SNB-78 CNS
DMS 114 small cell lung = test system: DMS 114 small cell lung
HCT-15 colon = test system: HCT-15 colon
OVCAR-4 ovarian = test system: OVCAR-4 ovarian
DMS 273 small cell lung = test system: DMS 273 small cell lung
RXF 393 renal = test system: RXF 393 renal
MOLT-4 leukemia = test system: MOLT-4 leukemia
HT29 colon = test system: HT29 colon
EKVX NSCLC = test system: EKVX NSCLC
IGROV1 ovarian = test system: IGROV1 ovarian
SK-MEL-5 melanoma = test system: SK-MEL-5 melanoma
DLD-1 colon = test system: DLD-1 colon
M19-MEL melanoma = test system: M19-MEL melanoma
SK-MEL-28 melanoma = test system: SK-MEL-28 melanoma
HOP-92 NSCLC = test system: HOP-92 NSCLC
SR leukemia = test system: SR leukemia

For CC1(C)C2CCC13C(=O)C1OC3(C2)C2C(=O)N(c3ccccc3)C(=O)C12 (stereo not given), the TGI (A498 renal) was > 100 µM, the TGI (SW-620 colon) was > 100 µM and the TGI (SF-268 CNS) was > 100 µM. The TGI (NCI-H460 lung) was > 100 µM, the TGI (NCI-H522 lung) was 49.1 µM and the TGI (UACC-257 melanoma) was > 100 µM. The TGI (UO-31 renal) was > 100 µM, the TGI (COLO 205 colon) was > 100 µM and the TGI (OVCAR-5 ovarian) was > 100 µM. For the same compound, the TGI (OVCAR-8 ovarian) was > 100 µM, the TGI (HCT-116 colon) was > 100 µM and the TGI (SF-295 CNS) was > 100 µM. For the same compound, the TGI (UACC-62 melanoma) was > 100 µM, the TGI (HL-60(TB) leukemia) was > 100 µM and the TGI (OVCAR-3 ovarian) was > 100 µM. The TGI (SK-OV-3 ovarian) was > 100 µM, the TGI (KM12 colon) was > 100 µM and the TGI (HCC-2998 colon) was > 100 µM. The TGI (A549 NSCLC) was > 100 µM, the TGI (SK-MEL-2 melanoma) was > 100 µM and the TGI (786-0 renal) was > 100 µM. The TGI (SNB-75 CNS) was > 100 µM, the TGI (SF-539 CNS) was > 100 µM and the TGI (SNB-19 CNS) was > 100 µM. The TGI (NCI-H23 lung) was > 100 µM, the TGI (HOP-18 NSCLC) was > 100 µM and the TGI (NCI-H226 lung) was > 100 µM. The TGI (SN12C renal) was > 100 µM, the TGI (U251 CNS) was > 100 µM and the TGI (LOX IMVI melanoma) was > 100 µM. For the same compound, the TGI (CCRF-CEM leukemia) was > 100 µM, the TGI (RPMI-8226 leukemia) was > 100 µM and the TGI (RXF-631 renal) was > 100 µM. For the same compound, the TGI (LXFL 529 NSCLC) was > 100 µM, the TGI (M14 melanoma) was > 100 µM and the TGI (TK-10 renal) was > 100 µM. For the same compound, the TGI (ACHN renal) was > 100 µM, the TGI (K-562 leukemia) was > 100 µM and the TGI (KM20L2 colon) was > 100 µM. The TGI (CAKI-1 renal) was > 100 µM, the TGI (MALME-3M melanoma) was > 100 µM and the TGI (HOP-62 NSCLC) was > 100 µM. For the same compound, the TGI (SNB-78 CNS) was > 100 µM, the TGI (DMS 114 small cell lung) was > 100 µM and the TGI (HCT-15 colon) was > 100 µM. For the same compound, the TGI (OVCAR-4 ovarian) was > 100 µM, the TGI (DMS 273 small cell lung) was > 100 µM and the TGI (RXF 393 renal) was > 100 µM. The TGI (MOLT-4 leukemia) was > 100 µM, the TGI (HT29 colon) was > 100 µM and the TGI (EKVX NSCLC) was > 100 µM. For the same compound, the TGI (IGROV1 ovarian) was > 100 µM and the TGI (SK-MEL-5 melanoma) was > 100 µM.

For COc1ccc(C(O)c2cc(OC)c(OC)c(OC)c2)cc1 (stereo not given), the TGI (A498 renal) was > 100 µM, the TGI (SW-620 colon) was > 100 µM and the TGI (SF-268 CNS) was > 100 µM. The TGI (NCI-H460 lung) was > 100 µM, the TGI (NCI-H522 lung) was 35.5 µM and the TGI (UACC-257 melanoma) was > 100 µM. The TGI (UO-31 renal) was > 100 µM, the TGI (COLO 205 colon) was 26.4 µM and the TGI (OVCAR-5 ovarian) was > 100 µM. The TGI (OVCAR-8 ovarian) was > 100 µM, the TGI (HCT-116 colon) was > 100 µM and the TGI (SF-295 CNS) was 29.2 µM. The TGI (UACC-62 melanoma) was > 100 µM, the TGI (HL-60(TB) leukemia) was 39.5 µM and the TGI (DLD-1 colon) was > 100 µM. For the same compound, the TGI (OVCAR-3 ovarian) was 47 µM, the TGI (KM12 colon) was > 100 µM and the TGI (A549 NSCLC) was > 100 µM. The TGI (786-0 renal) was > 100 µM, the TGI (SF-539 CNS) was 63.7 µM and the TGI (SNB-19 CNS) was > 100 µM. The TGI (HOP-18 NSCLC) was > 100 µM, the TGI (NCI-H226 lung) was > 100 µM and the TGI (SN12C renal) was > 100 µM. For the same compound, the TGI (U251 CNS) was > 100 µM, the TGI (LOX IMVI melanoma) was > 100 µM and the TGI (CCRF-CEM leukemia) was > 100 µM. The TGI (M19-MEL melanoma) was > 100 µM, the TGI (RPMI-8226 leukemia) was > 100 µM and the TGI (RXF-631 renal) was > 100 µM. The TGI (LXFL 529 NSCLC) was > 100 µM, the TGI (M14 melanoma) was 83.3 µM and the TGI (TK-10 renal) was > 100 µM. For the same compound, the TGI (SK-MEL-28 melanoma) was > 100 µM, the TGI (ACHN renal) was > 100 µM and the TGI (K-562 leukemia) was > 100 µM. The TGI (CAKI-1 renal) was > 100 µM, the TGI (HOP-92 NSCLC) was > 100000 nM and the TGI (MALME-3M melanoma) was > 100 µM. For the same compound, the TGI (HOP-62 NSCLC) was > 100 µM, the TGI (SNB-78 CNS) was > 100 µM and the TGI (DMS 114 small cell lung) was 37.5 µM. For the same compound, the TGI (HCT-15 colon) was > 100 µM, the TGI (OVCAR-4 ovarian) was > 100 µM and the TGI (DMS 273 small cell lung) was > 100 µM. The TGI (RXF 393 renal) was 30.6 µM, the TGI (MOLT-4 leukemia) was > 100 µM and the TGI (HT29 colon) was > 100 µM. The TGI (EKVX NSCLC) was > 100 µM, the TGI (IGROV1 ovarian) was > 100 µM and the TGI (SK-MEL-5 melanoma) was 42.2 µM.

CC(C)(CN1CCCCC1)C(=O)/C=C/c1ccc(Cl)c(Cl)c1 was tested, and the TGI (A498 renal) was 3.09 µM, the TGI (SW-620 colon) was 2.94 µM and the TGI (SF-268 CNS) was 3.74 µM. It also gave a TGI (NCI-H460 lung) of 3.46 µM, a TGI (NCI-H522 lung) of 2.67 µM and a TGI (UACC-257 melanoma) of 2.41 µM. It also gave a TGI (UO-31 renal) of 2.99 µM, a TGI (COLO 205 colon) of 2.85 µM and a TGI (OVCAR-5 ovarian) of 3.08 µM. The TGI (OVCAR-8 ovarian) was > 100 µM, the TGI (HCT-116 colon) was 3.08 µM and the TGI (SF-295 CNS) was 5.86 µM. The TGI (UACC-62 melanoma) was 4.06 µM, the TGI (HL-60(TB) leukemia) was 3.4 µM and the TGI (DLD-1 colon) was 3.5 µM. For the same compound, the TGI (OVCAR-3 ovarian) was 2.94 µM, the TGI (SK-OV-3 ovarian) was 7.51 µM and the TGI (KM12 colon) was 3.25 µM. It also gave a TGI (HCC-2998 colon) of 3.21 µM, a TGI (A549 NSCLC) of 4.07 µM and a TGI (SK-MEL-2 melanoma) of 3.18 µM. It also gave a TGI (786-0 renal) of 2.69 µM, a TGI (SNB-75 CNS) of 3.13 µM and a TGI (SF-539 CNS) of 4.6 µM. It also gave a TGI (SNB-19 CNS) of 12.2 µM, a TGI (NCI-H23 lung) of 3.26 µM and a TGI (HOP-18 NSCLC) of 2.85 µM. It also gave a TGI (NCI-H226 lung) of 3.15 µM, a TGI (SN12C renal) of 2.92 µM and a TGI (U251 CNS) of 2.7 µM. For the same compound, the TGI (LOX IMVI melanoma) was 2.76 µM, the TGI (CCRF-CEM leukemia) was 3.27 µM and the TGI (M19-MEL melanoma) was 3.21 µM. For the same compound, the TGI (RPMI-8226 leukemia) was 5.34 µM, the TGI (RXF-631 renal) was 3.72 µM and the TGI (LXFL 529 NSCLC) was 2.78 µM. The TGI (M14 melanoma) was 3.07 µM, the TGI (TK-10 renal) was 2.8 µM and the TGI (SK-MEL-28 melanoma) was 3.37 µM. The TGI (ACHN renal) was 2.88 µM, the TGI (SR leukemia) was 4.69 µM and the TGI (K-562 leukemia) was 4.13 µM. For the same compound, the TGI (HOP-92 NSCLC) was 2340 nM, the TGI (MALME-3M melanoma) was 3.31 µM and the TGI (HOP-62 NSCLC) was 3.8 µM. It also gave a TGI (SNB-78 CNS) of 4.5 µM, a TGI (DMS 114 small cell lung) of 3.05 µM and a TGI (HCT-15 colon) of 2.73 µM. It also gave a TGI (OVCAR-4 ovarian) of 2.87 µM, a TGI (DMS 273 small cell lung) of 3.2 µM and a TGI (RXF 393 renal) of 2.42 µM. For the same compound, the TGI (MOLT-4 leukemia) was 4.57 µM, the TGI (HT29 colon) was 3.06 µM and the TGI (EKVX NSCLC) was 3.29 µM. For the same compound, the TGI (IGROV1 ovarian) was 4.15 µM and the TGI (SK-MEL-5 melanoma) was 3.5 µM.
